Key:
Type in all cases: functional, cell-based
HepG2 = assay: Cytotoxicity against human HepG2 cells after 72 hrs by SRB assay; conditions: HepG2, 72 h
LNCaP = assay: Cytotoxicity against human LNCAP cells after 72 hrs by SRB assay
MCF7 = assay: Cytotoxicity against human MCF7 cells after 72 hrs by SRB assay; conditions: MCF7, 72 h
SK-MEL-2 = assay: Cytotoxicity against human SK-MEL-2 cells after 72 hrs by SRB assay; conditions: SK-MEL-2, 72 h
KB = assay: Cytotoxicity against human KB cells after 72 hrs by SRB assay

Row | Structure (SMILES) | IC50 (HepG2) | IC50 (LNCaP) | IC50 (MCF7) | IC50 (SK-MEL-2) | IC50 (KB)
1 | C=C(C)C[C@@H](C[C@]1(C)OC(=O)[C@]23CC[C@H]4C(=CC[C@H]5C(C)(C)[C@@H](O[C@@H]6OC[C@@H](O)[C@H](O)[C@H]6O[C@@H]6OC[C@@H](O)[C@H](O)[C@H]6O)CC[C@]45C)[C@]2(C)CC[C@@H]31)OC(C)=O | 1.92 µM | 3.13 µM | 2.11 µM | 2.27 µM | 2.36 µM
2 | C=C(C)CCC(O)[C@]1(C)OC(=O)[C@]23CC[C@H]4C(=CC[C@H]5C(C)(C)[C@@H](O[C@@H]6OC[C@@H](O)[C@H](O)[C@H]6O[C@@H]6O[C@H](CO)[C@@H](O)[C@H](O)[C@H]6O)CC[C@]45C)[C@]2(C)CC[C@H]13 (stereo partly drawn) | 37.9 µM | 51.6 µM | 41.9 µM | 43.5 µM | 33.5 µM
3 | CC(=O)O[C@@H](CC(C)C)C[C@]1(C)OC(=O)[C@]23CC[C@H]4C(=CC[C@H]5C(C)(C)[C@@H](O[C@@H]6OC[C@@H](O)[C@H](O)[C@H]6O[C@@H]6O[C@H](C)[C@@H](O)[C@H](O)[C@H]6O)CC[C@]45C)[C@]2(C)CC[C@@H]31 | 2.97 µM | 3.02 µM | 2.12 µM | 2.7 µM | 2.82 µM
4 | CC(=O)O[C@@H](CC(C)C)C[C@]1(C)OC(=O)[C@]23CC[C@H]4C(=CC[C@H]5C(C)(C)[C@@H](O[C@@H]6OC[C@@H](O)[C@H](O)[C@H]6O[C@@H]6OC[C@@H](O)[C@H](O)[C@H]6O)CC[C@]45C)[C@]2(C)CC[C@@H]31 | 2.04 µM | 2.7 µM | 2.08 µM | 2.21 µM | 3.11 µM
5 | C=C(C)CCC(O)[C@]1(C)OC(=O)[C@]23CC[C@H]4C(=CC[C@H]5C(C)(C)[C@@H](O[C@@H]6OC[C@@H](O)[C@H](O)[C@H]6O[C@@H]6O[C@H](CO)[C@@H](OS(=O)(=O)O)[C@H](O)[C@H]6O)CC[C@]45C)[C@]2(C)CC[C@H]13 (stereo partly drawn) | 55.3 µM | 51.5 µM | 59.5 µM | 67.2 µM | 45.4 µM
6 | CC(C)C[C@H](O)C[C@]1(C)OC(=O)[C@]23CC[C@H]4C(=CC[C@H]5C(C)(C)[C@@H](O[C@@H]6OC[C@@H](O)[C@H](O)[C@H]6O[C@@H]6OC[C@@H](O)[C@H](O)[C@H]6O)CC[C@]45C)[C@]2(C)CC[C@@H]31 | 53.8 µM | 59.3 µM | 52.2 µM | 41.9 µM | 48.4 µM
7 | CC(=O)O[C@@H](CC(C)C)C[C@]1(C)OC(=O)[C@]23CC[C@H]4C(=CC[C@H]5C(C)(C)[C@@H](O[C@@H]6OC[C@@H](O)[C@H](O)[C@H]6O[C@@H]6O[C@H](CO)[C@@H](O)[C@H](O)[C@H]6O)CC[C@]45C)[C@]2(C)CC[C@@H]31 | 5.28 µM | 7.6 µM | 6.36 µM | 5.77 µM | 8.86 µM
8 | C=C(C)C[C@@H](C[C@]1(C)OC(=O)[C@]23CC[C@H]4C(=CC[C@H]5C(C)(C)[C@@H](O[C@@H]6OC[C@@H](O)[C@H](O)[C@H]6O[C@@H]6O[C@H](CO)[C@@H](O)[C@H](O)[C@H]6O)CC[C@]45C)[C@]2(C)CC[C@@H]31)OC(C)=O | 7.03 µM | 10.1 µM | 7.25 µM | 10.8 µM | 11 µM
9 | Cc1c2ccncc2c(C)c2c1[nH]c1ccccc12 [ELLIPTECINE] |  | 1.95 µM |  | 1.91 µM | 1.79 µM
